According to patent US6770597B2, “Benzohydrazide derivatives as herbicides and desiccant compositions containing them” (Ishihara Sangyo Kaisha, Ltd., priority 2002, dated 2004):

What was measured:
Format in all cases: in vivo
[1] = system: green foxtail (Setaria viridis, SETVI); assay: Greenhouse herbicide screen, pre-emerge application, phytotoxicity rating; conditions: PRE emergent, 14 days after application, rating scale 0-100
Description: (§1) A standard greenhouse herbicide activity screening system was used to evaluate the herbicidal efficacy and crop safety of these test compounds. Seven broadleaf weed species including redroot pigweed (Amaranthus retrofiexus, AMARE), velvetleaf (Abutilon theophrasti, ABUTH), sicklepod (Cassia obtusifolia, CASOB), ivyleaf morningglory (Ipomoea hederacea, IPOHE), lambsquarters (Chenopodium album, CHEAL), common ragweed (Ambrosia artemisiifolia L., AMBEL), and cocklebur (Xanthium strumarium, XANST) were used as test species. Four grass weed species including green foxtail (Setaria viridis, SETVI), barnyardgrass (Echinochloa crus-galli, ECHCG), johnsongrass (Sorghum halepense, SORHA), and large crabgrass (Digitaria sanguinalis, DIGSA) were also used. In addition, four crop species, field corn (Zea mays L., var. Dekalb 535, CORN), soybean (Glycine max L., var. Pella 86, SOY), upland rice (Oryza sp., var.Cocodrie, RICE) and wheat (Triticum aestivum L.) were included.
(§2) All plants were grown in 10 cm square plastic pots which were filled with a sandy loam soil mix. For pre-emerge tests, seeds were planted one day prior to application of the test compounds. For post-emerge tests, seeds were planted 8-21 days prior to the test to allow emergence and good foliage development prior to application of the test substances. At the time of the post-emerge application, plants of all species were usually at the 2-3 leaf stage of development.
(§3) All test compounds were dissolved in acetone and applied to the test units in a volume of 187 l/ha. Test materials were applied at rates ranging from 15 g ai/ha to 1000 g ai/ha using a track sprayer equipped with a TJ8001E even flow flat fan spray nozzle. Plants were arranged on a shelf so that the top of the canopy (post-emerge) or top of the soil surface (pre-emerge) was 40-45 cm below the nozzle. Pressurized air was used to force the test solution through the nozzle as it was mechanically advanced (via electrically driven chain drive) over the top of all test plants/pots. This application simulates a typical commercial field herbicide application.
(§4) Pre-emergence tests were top watered immediately after treatment to incorporate the test materials, then routinely top-watered for normal growth. Post-emerge test units were always bottom-watered.
(§5) At 14 days after application of the test materials, phytotoxicity ratings were recorded. A rating scale of 0-100 was used as previously described in Research Methods in Weed Science, 2nd edition, B. Truelove, Ed., Southern Weed Science Society, Auburn University, Auburn, Ala., 1977. Briefly, “0” corresponds to no damage and “100” corresponds to complete death of all plants in the test unit. This scale was used both to determine efficacy against weed species and damage to crop species. Herbicide activity data for various compounds of this invention, which are shown by compound No. in Tables 1-12, are shown in Tables 13 and 14.

[2] = system: large crabgrass (Digitaria sanguinalis, DIGSA); assay: as above; conditions: PRE emergent, 14 days after application, rating scale 0-100
Description: as §1, §2, §3, §4, §5

[3] = system: barnyardgrass (Echinochloa crus-galli, ECHCG); assay: as above; conditions: PRE emergent, 14 days after application, rating scale 0-100
Description: as §1, §2, §3, §4, §5

[4] = system: cocklebur (Xanthium strumarium, XANST); assay: as above; conditions: PRE emergent, 14 days after application, rating scale 0-100
Description: as §1, §2, §3, §4, §5

[5] = system: johnsongrass (Sorghum halepense, SORHA); assay: as above; conditions: PRE emergent, 14 days after application, rating scale 0-100
Description: as §1, §2, §3, §4, §5

[6] = system: common ragweed (Ambrosia artemisiifolia L., AMBEL); assay: as above; conditions: PRE emergent, 14 days after application, rating scale 0-100
Description: as §1, §2, §3, §4, §5

[7] = system: redroot pigweed (Amaranthus retrofiexus, AMARE); assay: as above; conditions: PRE emergent, 14 days after application, rating scale 0-100
Description: as §1, §2, §3, §4, §5

[8] = system: lambsquarters (Chenopodium album, CHEAL); assay: as above; conditions: PRE emergent, 14 days after application, rating scale 0-100
Description: as §1, §2, §3, §4, §5

[9] = system: velvetleaf (Abutilon theophrasti, ABUTH); assay: as above; conditions: PRE emergent, 14 days after application, rating scale 0-100
Description: as §1, §2, §3, §4, §5

[10] = system: sicklepod (Cassia obtusifolia, CASOB); assay: as above; conditions: PRE emergent, 14 days after application, rating scale 0-100
Description: as §1, §2, §3, §4, §5

[11] = system: ivyleaf morningglory (Ipomoea hederacea, IPOHE); assay: as above; conditions: PRE emergent, 14 days after application, rating scale 0-100
Description: as §1, §2, §3, §4, §5

[12] = system: green foxtail (Setaria viridis, SETVI); assay: Greenhouse herbicide screen, post-emerge application, phytotoxicity rating; conditions: POST emergent, 14 days after application, scale 0-100
Description: as §1, §2, §3, §4, §5

[13] = system: large crabgrass (Digitaria sanguinalis, DIGSA); assay: as above; conditions: POST emergent, 14 days after application, scale 0-100
Description: as §1, §2, §3, §4, §5

[14] = system: barnyardgrass (Echinochloa crus-galli, ECHCG); assay: as above; conditions: POST emergent, 14 days after application, scale 0-100
Description: as §1, §2, §3, §4, §5

[15] = system: cocklebur (Xanthium strumarium, XANST); assay: as above; conditions: POST emergent, 14 days after application, scale 0-100
Description: as §1, §2, §3, §4, §5

[16] = system: johnsongrass (Sorghum halepense, SORHA); assay: as above; conditions: POST emergent, 14 days after application, scale 0-100
Description: as §1, §2, §3, §4, §5

[17] = system: common ragweed (Ambrosia artemisiifolia L., AMBEL); assay: as above; conditions: POST emergent, 14 days after application, scale 0-100
Description: as §1, §2, §3, §4, §5

[18] = system: redroot pigweed (Amaranthus retrofiexus, AMARE); assay: as above; conditions: POST emergent, 14 days after application
Description: as §1, §2, §3, §4, §5

[19] = system: lambsquarters (Chenopodium album, CHEAL); assay: as above; conditions: POST emergent, 14 days after application, scale 0-100
Description: as §1, §2, §3, §4, §5

[20] = system: velvetleaf (Abutilon theophrasti, ABUTH); assay: as above; conditions: POST emergent, 14 days after application, scale 0-100
Description: as §1, §2, §3, §4, §5

[21] = system: sicklepod (Cassia obtusifolia, CASOB); assay: as above; conditions: POST emergent, 14 days after application, scale 0-100
Description: as §1, §2, §3, §4, §5

[22] = system: ivyleaf morningglory (Ipomoea hederacea, IPOHE); assay: as above; conditions: POST emergent, 14 days after application, scale 0-100
Description: as §1, §2, §3, §4, §5

**Q.** With CN(N=C(C(C)(C)C)C(C)(C)C)C(=O)c1cc(-n2c(=O)cc(C(F)(F)F)n(C)c2=O)c(F)cc1Cl [Compound 6-8, 2-chloro-5-(3,6-dihydro-3-methyl-2,6-dioxo-4-(trifluoromethyl)-1(2H)-pyrimidinyl)-4-fluoro-benzoic acid, 2-[1-(1,1-dimethylethyl)-2,2-dimethylpropylidene]-1-methylhydrazide] as the molecule, how does the “phytotoxicity rating SETVI” value ([1]; 63 g ai/ha) read?
**A.** 55

**Q.** And the “phytotoxicity rating SETVI” value ([1]; 250 g ai/ha)?
**A.** 99

**Q.** And the “phytotoxicity rating DIGSA” value ([2]; 63 g ai/ha)?
**A.** 60

**Q.** And the “phytotoxicity rating DIGSA” value ([2]; 250 g ai/ha)?
**A.** 95

**Q.** What about the “phytotoxicity rating ECHCG” value ([3]; 63 g ai/ha) of the same molecule?
**A.** 30

**Q.** And the “phytotoxicity rating ECHCG” value ([3]; 250 g ai/ha)?
**A.** 85

**Q.** What about the “phytotoxicity rating XANST” value ([4]; 63 g ai/ha) of the same molecule?
**A.** 0

**Q.** And the “phytotoxicity rating XANST” value ([4]; 250 g ai/ha)?
**A.** 70

**Q.** What about the “phytotoxicity rating SORHA” value ([5]; 63 g ai/ha) of the same molecule?
**A.** 55

**Q.** What about the “phytotoxicity rating SORHA” value ([5]; 250 g ai/ha) of the same molecule?
**A.** 100

**Q.** What about the “phytotoxicity rating AMBEL” value ([6]; 63 g ai/ha) of the same molecule?
**A.** 0

**Q.** And the “phytotoxicity rating AMBEL” value ([6]; 250 g ai/ha)?
**A.** 99

**Q.** And the “phytotoxicity rating AMARE” value ([7]; 63 g ai/ha)?
**A.** 100

**Q.** What about the “phytotoxicity rating AMARE” value ([7]; 250 g ai/ha) of the same molecule?
**A.** 100

**Q.** And the “phytotoxicity rating CHEAL” value ([8]; 63 g ai/ha)?
**A.** 100

**Q.** And the “phytotoxicity rating CHEAL” value ([8]; 250 g ai/ha)?
**A.** 100

**Q.** What about the “phytotoxicity rating ABUTH” value ([9]; 63 g ai/ha) of the same molecule?
**A.** 99

**Q.** What about the “phytotoxicity rating ABUTH” value ([9]; 250 g ai/ha) of the same molecule?
**A.** 99

**Q.** What about the “phytotoxicity rating CASOB” value ([10]; 63 g ai/ha) of the same molecule?
**A.** 20

**Q.** What about the “phytotoxicity rating CASOB” value ([10]; 250 g ai/ha) of the same molecule?
**A.** 70

**Q.** And the “phytotoxicity rating IPOHE” value ([11]; 63 g ai/ha)?
**A.** 60

**Q.** And the “phytotoxicity rating IPOHE” value ([11]; 250 g ai/ha)?
**A.** 100

**Q.** What about the “phytotoxicity rating SETVI” value ([12]; 63 g ai/ha) of the same molecule?
**A.** 50

**Q.** What about the “phytotoxicity rating SETVI” value ([12]; 250 g ai/ha) of the same molecule?
**A.** 75

**Q.** What about the “phytotoxicity rating DIGSA” value ([13]; 63 g ai/ha) of the same molecule?
**A.** 50

**Q.** And the “phytotoxicity rating DIGSA” value ([13]; 250 g ai/ha)?
**A.** 60

**Q.** What about the “phytotoxicity rating ECHCO” value ([14]; 63 g ai/ha) of the same molecule?
**A.** 60

**Q.** What about the “phytotoxicity rating ECHCO” value ([14]; 250 g ai/ha) of the same molecule?
**A.** 85

**Q.** What about the “phytotoxicity rating XANST” value ([15]; 63 g ai/ha) of the same molecule?
**A.** 35

**Q.** And the “phytotoxicity rating XANST” value ([15]; 250 g ai/ha)?
**A.** 100

**Q.** And the “phytotoxicity rating SORHA” value ([16]; 63 g ai/ha)?
**A.** 65

**Q.** And the “phytotoxicity rating SORHA” value ([16]; 250 g ai/ha)?
**A.** 95

**Q.** And the “phytotoxicity rating AMBEL” value ([17]; 63 g ai/ha)?
**A.** 70

**Q.** What about the “phytotoxicity rating AMBEL” value ([17]; 250 g ai/ha) of the same molecule?
**A.** 70

**Q.** And the “phytotoxicity rating AMARE” value ([18]; 63 g ai/ha, scale 0-100 (0 no damage, 100 complete death))?
**A.** 99

**Q.** What about the “phytotoxicity rating AMARE” value ([18]; 250 g ai/ha, scale 0-100) of the same molecule?
**A.** 100

**Q.** What about the “phytotoxicity rating CHEAL” value ([19]; 63 g ai/ha) of the same molecule?
**A.** 80

**Q.** And the “phytotoxicity rating CHEAL” value ([19]; 250 g ai/ha)?
**A.** 100

**Q.** And the “phytotoxicity rating ABUTH” value ([20]; 63 g ai/ha)?
**A.** 50

**Q.** And the “phytotoxicity rating ABUTH” value ([20]; 250 g ai/ha)?
**A.** 100

**Q.** And the “phytotoxicity rating CASOB” value ([21]; 63 g ai/ha)?
**A.** 50

**Q.** What about the “phytotoxicity rating CASOB” value ([21]; 250 g ai/ha) of the same molecule?
**A.** 60

**Q.** And the “phytotoxicity rating IPOHE” value ([22]; 63 g ai/ha)?
**A.** 100

**Q.** What about the “phytotoxicity rating IPOHE” value ([22]; 250 g ai/ha) of the same molecule?
**A.** 100
